Remaining activity data for three compounds are collected here from patent publication US20240246942A1, “KINASE INHIBITORS FOR THE TREATMENT OF NEURODEGENERATIVE DISEASES” (priority 2020, published 2024).

Test in all cases: biochemical
Assay [1] has as its target T1, panel of 374 wild-type kinases (Homo sapiens, UniProt Q96PN8).
T1 construct: purchased Reaction Biology Corporation
T1 sequence (Q96PN8 1-268): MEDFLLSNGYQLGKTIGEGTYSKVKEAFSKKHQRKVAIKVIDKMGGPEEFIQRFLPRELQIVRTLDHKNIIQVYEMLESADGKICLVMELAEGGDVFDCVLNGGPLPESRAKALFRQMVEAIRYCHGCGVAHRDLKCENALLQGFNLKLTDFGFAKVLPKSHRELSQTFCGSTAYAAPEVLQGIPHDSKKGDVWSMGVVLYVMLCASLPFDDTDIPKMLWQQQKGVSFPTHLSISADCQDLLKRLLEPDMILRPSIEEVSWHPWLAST
The settings on record: read-out: % Enzyme Activity (relative to DMSO controls), kinase TSSK3/STK22C.

Assay [2] concerns the target T2, panel of 374 wild-type kinases (Homo sapiens, UniProt Q14680).
T2 construct: purchased Reaction Biology Corporation
To be noted: read-out: % Enzyme Activity (relative to DMSO controls), MELK.

For assay [3], the target named is T3, panel of 374 wild-type kinases (Homo sapiens, UniProt Q15303).
T3 construct: purchased Reaction Biology Corporation
To be noted: read-out: % Enzyme Activity (relative to DMSO controls), ERBB4/HER4.

Assay [4] deals with T4, panel of 374 wild-type kinases (Homo sapiens, UniProt Q15831).
T4 construct: purchased Reaction Biology Corporation
T4 sequence (Q15831 1-433): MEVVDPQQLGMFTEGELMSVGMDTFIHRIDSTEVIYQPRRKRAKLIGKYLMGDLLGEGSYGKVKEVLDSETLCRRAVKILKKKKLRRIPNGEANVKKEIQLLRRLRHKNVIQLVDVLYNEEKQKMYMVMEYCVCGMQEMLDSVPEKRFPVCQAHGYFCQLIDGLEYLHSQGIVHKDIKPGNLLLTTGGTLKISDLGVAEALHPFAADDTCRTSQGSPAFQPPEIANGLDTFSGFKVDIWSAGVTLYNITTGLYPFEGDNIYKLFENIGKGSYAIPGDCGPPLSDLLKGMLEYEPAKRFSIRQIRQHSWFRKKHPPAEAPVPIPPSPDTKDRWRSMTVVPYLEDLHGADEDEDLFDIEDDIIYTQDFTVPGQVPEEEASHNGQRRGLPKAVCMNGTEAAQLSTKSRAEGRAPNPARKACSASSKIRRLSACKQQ
To be noted: read-out: % Enzyme Activity (relative to DMSO controls), LKB1.

Assay [5] deals with T5, panel of 374 wild-type kinases (Homo sapiens, UniProt O95747).
T5 construct: purchased Reaction Biology Corporation
To be noted: read-out: % Enzyme Activity (relative to DMSO controls), OSR1/OXSR1.

Assay [6] deals with T6, panel of 374 wild-type kinases (Homo sapiens, UniProt Q99986).
T6 construct: purchased Reaction Biology Corporation
T6 sequence (Q99986 1-396): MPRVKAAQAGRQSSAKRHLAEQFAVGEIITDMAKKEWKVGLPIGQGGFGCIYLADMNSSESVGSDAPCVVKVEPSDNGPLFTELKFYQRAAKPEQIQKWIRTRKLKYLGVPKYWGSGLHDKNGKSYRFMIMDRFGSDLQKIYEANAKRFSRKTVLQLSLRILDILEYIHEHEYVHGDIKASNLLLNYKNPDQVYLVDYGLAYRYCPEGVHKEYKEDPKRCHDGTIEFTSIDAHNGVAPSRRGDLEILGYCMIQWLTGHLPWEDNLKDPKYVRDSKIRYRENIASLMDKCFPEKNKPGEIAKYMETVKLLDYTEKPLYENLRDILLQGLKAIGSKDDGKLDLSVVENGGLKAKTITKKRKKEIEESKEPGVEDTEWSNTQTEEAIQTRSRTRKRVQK
To be noted: read-out: % Enzyme Activity (relative to DMSO controls), kinase VRK1.

The target in assay [7] is T7, panel of 374 wild-type kinases (Homo sapiens, UniProt Q8IVT5).
T7 construct: purchased Reaction Biology Corporation
T7 sequence (Q8IVT5 1-923): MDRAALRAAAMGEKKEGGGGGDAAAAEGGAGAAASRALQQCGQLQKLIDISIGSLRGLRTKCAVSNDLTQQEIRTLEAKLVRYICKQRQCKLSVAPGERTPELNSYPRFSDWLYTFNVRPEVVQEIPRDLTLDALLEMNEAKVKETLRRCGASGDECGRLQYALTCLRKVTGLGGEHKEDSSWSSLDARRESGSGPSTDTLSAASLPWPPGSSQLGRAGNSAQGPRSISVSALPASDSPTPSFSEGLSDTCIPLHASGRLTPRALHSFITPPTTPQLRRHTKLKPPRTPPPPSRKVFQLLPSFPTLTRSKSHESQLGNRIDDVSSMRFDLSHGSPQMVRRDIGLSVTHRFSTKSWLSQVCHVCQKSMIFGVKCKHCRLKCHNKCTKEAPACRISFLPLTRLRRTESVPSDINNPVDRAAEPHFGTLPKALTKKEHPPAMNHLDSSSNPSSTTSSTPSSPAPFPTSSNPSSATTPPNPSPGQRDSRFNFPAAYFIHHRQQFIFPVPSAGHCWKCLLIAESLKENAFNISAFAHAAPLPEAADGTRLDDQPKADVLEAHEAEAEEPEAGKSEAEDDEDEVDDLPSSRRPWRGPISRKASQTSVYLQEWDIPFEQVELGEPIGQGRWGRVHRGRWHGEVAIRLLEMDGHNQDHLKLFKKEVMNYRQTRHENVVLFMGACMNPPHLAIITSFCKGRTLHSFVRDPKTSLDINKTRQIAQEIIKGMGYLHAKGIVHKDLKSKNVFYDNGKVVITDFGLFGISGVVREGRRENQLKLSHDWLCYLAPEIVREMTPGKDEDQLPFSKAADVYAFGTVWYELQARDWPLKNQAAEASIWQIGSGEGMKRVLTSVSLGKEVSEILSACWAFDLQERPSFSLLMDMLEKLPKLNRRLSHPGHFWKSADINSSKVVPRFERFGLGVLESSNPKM
To be noted: read-out: % Enzyme Activity (relative to DMSO controls), KSR1.

T5 sequence (O95747 whole entry): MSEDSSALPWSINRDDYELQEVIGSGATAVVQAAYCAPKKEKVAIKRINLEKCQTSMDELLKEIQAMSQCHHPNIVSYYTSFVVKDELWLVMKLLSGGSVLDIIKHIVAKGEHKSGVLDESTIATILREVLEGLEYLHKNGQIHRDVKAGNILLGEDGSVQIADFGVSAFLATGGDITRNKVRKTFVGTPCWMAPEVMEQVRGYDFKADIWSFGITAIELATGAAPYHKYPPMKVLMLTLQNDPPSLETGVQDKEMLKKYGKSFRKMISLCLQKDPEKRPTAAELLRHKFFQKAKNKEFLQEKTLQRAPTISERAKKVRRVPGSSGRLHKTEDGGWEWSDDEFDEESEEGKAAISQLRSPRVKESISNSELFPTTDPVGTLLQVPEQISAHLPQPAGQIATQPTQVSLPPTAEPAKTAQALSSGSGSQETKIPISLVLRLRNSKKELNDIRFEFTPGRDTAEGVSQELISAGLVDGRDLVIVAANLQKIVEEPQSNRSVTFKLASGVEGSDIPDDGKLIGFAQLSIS
T3 sequence (Q15303 26-1308): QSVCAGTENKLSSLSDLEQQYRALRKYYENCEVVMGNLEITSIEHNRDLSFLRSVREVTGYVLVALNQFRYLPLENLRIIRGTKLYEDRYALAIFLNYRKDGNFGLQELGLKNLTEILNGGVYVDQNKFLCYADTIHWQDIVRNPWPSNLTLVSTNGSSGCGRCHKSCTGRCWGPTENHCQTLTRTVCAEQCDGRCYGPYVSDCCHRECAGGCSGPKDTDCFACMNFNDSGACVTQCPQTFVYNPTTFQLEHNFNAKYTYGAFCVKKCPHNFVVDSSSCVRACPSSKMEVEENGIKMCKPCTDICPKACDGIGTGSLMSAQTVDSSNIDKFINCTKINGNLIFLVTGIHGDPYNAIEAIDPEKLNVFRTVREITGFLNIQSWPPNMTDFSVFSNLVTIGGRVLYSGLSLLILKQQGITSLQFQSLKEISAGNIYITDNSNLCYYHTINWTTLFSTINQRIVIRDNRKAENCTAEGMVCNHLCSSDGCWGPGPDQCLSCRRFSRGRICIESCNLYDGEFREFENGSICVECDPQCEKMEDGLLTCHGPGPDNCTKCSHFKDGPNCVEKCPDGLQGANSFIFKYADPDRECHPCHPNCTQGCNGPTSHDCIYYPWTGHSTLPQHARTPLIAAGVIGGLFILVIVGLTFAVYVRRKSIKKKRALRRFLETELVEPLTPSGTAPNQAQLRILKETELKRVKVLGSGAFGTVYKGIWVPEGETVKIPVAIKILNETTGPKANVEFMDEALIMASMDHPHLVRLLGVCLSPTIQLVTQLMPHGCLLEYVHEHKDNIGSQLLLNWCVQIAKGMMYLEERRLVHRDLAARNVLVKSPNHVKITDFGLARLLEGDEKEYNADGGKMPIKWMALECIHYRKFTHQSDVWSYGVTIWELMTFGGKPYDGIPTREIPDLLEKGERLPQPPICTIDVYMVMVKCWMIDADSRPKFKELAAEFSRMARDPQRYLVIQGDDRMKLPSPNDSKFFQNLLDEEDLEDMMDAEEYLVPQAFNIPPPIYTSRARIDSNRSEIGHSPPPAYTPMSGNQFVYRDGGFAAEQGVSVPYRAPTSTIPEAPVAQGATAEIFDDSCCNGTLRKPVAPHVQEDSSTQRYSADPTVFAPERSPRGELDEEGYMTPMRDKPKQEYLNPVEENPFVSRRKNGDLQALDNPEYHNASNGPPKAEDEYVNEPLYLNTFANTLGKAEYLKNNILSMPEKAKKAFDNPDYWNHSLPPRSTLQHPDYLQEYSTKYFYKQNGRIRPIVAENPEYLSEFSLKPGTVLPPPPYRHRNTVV
T2 sequence (Q14680 whole entry): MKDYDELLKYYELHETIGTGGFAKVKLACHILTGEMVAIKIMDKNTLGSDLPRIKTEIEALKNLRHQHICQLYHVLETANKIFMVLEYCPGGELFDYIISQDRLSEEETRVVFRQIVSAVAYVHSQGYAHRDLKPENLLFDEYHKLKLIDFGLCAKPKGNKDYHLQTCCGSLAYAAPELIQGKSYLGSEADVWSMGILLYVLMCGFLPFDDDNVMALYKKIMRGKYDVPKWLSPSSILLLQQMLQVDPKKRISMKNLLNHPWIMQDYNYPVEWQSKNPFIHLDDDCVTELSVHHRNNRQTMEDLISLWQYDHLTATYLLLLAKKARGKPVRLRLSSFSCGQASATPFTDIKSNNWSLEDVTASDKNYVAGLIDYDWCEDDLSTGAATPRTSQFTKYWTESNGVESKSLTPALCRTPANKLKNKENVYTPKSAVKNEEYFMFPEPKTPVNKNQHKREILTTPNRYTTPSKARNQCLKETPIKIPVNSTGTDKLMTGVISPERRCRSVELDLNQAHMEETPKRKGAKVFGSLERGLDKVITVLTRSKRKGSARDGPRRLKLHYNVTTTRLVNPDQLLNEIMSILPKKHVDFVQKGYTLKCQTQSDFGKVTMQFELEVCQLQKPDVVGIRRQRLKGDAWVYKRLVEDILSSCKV

Turning to `O=C(Nc1cnn(-c2csc(C(=O)NC3COC3)c2)c1)Nc1ccccc1Cl` [Compound 17, 4-(4-(3-(2-chlorophenyl)ureido)-1H-pyrazol-1-yl)-N-(oxetan-3-yl)thiophene-2-carboxamide], the remaining activity at 5 µM stood at 97.7% in assay [1]; 48.7% in assay [2]; 105% in assay [3]; 118% in assay [4]; 92.6% in assay [5]; 109% in assay [6]. In addition, the remaining activity at 5 µM in assay [7] is 101%.

For the compound `O=C(Nc1cnn(-c2csc(C(=O)NC3COC3)c2)c1)Nc1c(F)cccc1Cl` [Compound 25, 4-(4-(3-(2-chloro-6-fluorophenyl)ureido)-1H-pyrazol-1-yl)-N-(oxetan-3-yl)thiophene-2-carboxamide], the remaining activity at 5 µM in assay [1] was found to be 101%; in assay [2], 61.4%; in assay [3], 102%; in assay [4], 94.7%; in assay [5], 96.5%; in assay [6] it was 91.9%. Besides, the remaining activity at 5 µM in assay [7] worked out at 105%.

For the compound `Cc1sc(C(=O)NC2COC2)cc1-n1cc(NC(=O)Nc2c(F)cccc2Cl)cn1` [Compound 27, 4-(4-(3-(2-chloro-6-fluorophenyl)ureido)-1H-pyrazol-1-yl)-5-methyl-N-(oxetan-3-yl)thiophene-2-carboxamide], the remaining activity at 10 µM in assay [1] (10 uM) amounted to 100%; in assay [2] (10 uM) it was 103%; in assay [3] (10 uM) it was 95%; in assay [4] (10 uM) it was 97.6%; in assay [5] (10 uM), 127%; in assay [6] (10 uM) it was 109%. In addition, the remaining activity at 10 µM in assay [7] (10 uM) was 103%.
